Experimental data reported in patent publication US11827657B2, “Boron containing pyrazole compounds, compositions comprising them, methods and uses thereof” (BOEHRINGER INGELHEIM ANIMAL HEALTH USA INC., priority 2020, dated 2023).

Molecular target: JAK1 (Homo sapiens, UniProt P23458)
Experiment: Biochemical Kinase Assay (JAK), 33P-ATP filter-binding
Conditions: Biochemical Kinase Inhibition Assay; potency level of IC50; read-out: JAK1 (range)
Protocol: Biochemical Kinase Assay Protocol (JAK) • Reagent: Base Reaction buffer; 20 mM Hepes (pH 7.5), 10 mM MgCl2, 1 mM EGTA, 0.02% Brij™ 35, 0.02 mg/ml BSA, 0.1 mM Na3VO4, 2 mM DTT, 1% DMSO, where required cofactors were added individually to each kinase reaction.
Reaction Procedure: • 1. Prepared indicated substrate in freshly prepared Base Reaction Buffer • 2. Delivered any required cofactors to the substrate solution above • 3. Delivered indicated kinase into the substrate solution and gently mix • 4. Delivered compounds in DMSO into the kinase reaction mixture by Acoustic technology (Echo550; nanoliter range), incubated for 20 minutes at room temperature • 5. Delivered 33P-ATP into the reaction mixture to initiate the reaction. • 6. Incubated kinase reaction for 2 hours at room temperature • 7. Reactions were spotted onto P81 ion exchange paper • 8. Detected kinase activity by filter-binding method.
Compounds according to the present invention were tested in the Biochemical Kinase Assay Protocol. The results are provided below in Table 1, wherein the potency levels A, B, and C in the columns labeled JAK1 (range) correspond to IC50 as follows: A<10 nM; B=10-50 nM and C>50 nM. The Example Number entries formatted ##a represent stereoisomer one and entries formatted ##b represent stereoisomer two.

Sequence of JAK1 (P23458 whole entry, species assumed): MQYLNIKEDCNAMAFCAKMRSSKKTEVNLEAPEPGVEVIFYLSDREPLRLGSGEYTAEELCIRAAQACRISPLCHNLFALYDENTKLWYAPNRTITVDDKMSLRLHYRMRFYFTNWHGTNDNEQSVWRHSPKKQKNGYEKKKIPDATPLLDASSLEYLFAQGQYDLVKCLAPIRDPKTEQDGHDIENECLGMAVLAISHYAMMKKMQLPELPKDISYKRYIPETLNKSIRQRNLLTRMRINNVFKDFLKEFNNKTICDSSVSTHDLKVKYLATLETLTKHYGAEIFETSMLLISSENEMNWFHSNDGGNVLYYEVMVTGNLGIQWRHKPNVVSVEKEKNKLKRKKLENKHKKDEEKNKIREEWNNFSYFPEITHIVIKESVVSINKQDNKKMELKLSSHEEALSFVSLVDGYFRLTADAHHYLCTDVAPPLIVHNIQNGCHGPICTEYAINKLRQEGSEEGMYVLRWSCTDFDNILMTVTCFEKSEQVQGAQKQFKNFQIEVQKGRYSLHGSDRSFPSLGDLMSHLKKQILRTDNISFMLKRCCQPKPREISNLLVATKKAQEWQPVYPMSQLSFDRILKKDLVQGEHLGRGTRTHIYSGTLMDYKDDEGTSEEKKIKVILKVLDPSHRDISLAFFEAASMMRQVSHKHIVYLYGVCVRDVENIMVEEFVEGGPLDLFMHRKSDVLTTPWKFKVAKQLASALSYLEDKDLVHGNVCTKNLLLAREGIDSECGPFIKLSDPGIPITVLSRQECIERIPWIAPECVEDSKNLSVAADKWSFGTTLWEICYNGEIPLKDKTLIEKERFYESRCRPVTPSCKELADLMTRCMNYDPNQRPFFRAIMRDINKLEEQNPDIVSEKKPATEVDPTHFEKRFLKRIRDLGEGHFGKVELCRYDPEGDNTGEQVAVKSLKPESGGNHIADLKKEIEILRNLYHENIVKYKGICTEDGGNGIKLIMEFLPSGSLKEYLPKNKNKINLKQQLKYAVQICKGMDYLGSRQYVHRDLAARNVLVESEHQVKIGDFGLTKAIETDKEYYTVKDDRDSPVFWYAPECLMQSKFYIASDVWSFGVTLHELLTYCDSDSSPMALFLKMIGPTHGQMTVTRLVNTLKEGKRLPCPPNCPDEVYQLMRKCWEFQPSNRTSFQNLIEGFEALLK

| IC50 [µM] | Compound |
| --- | --- |
| < 0.01 | CC1=Cc2cc(Nc3nn(C4COCCC4C#N)cc3C(N)=O)cc(F)c2OB1O (stereo not drawn) [Example 14, 1-(trans-4-cyanotetrahydro-2H-pyran-3-yl)-3-[(8-fluoro-2-hydroxy-3-methyl-1,2-benzoxaborinin-6-yl)amino]pyrazole-4-carboxamide] |
| < 0.01 | N#C[C@@H]1CCOC[C@H]1n1cc(C(N)=O)c(Nc2cc(Cl)c3c(c2)C=CB(O)O3)n1 (single isomer, unassigned) [Example 13b, 3-[(8-chloro-2-hydroxy-1,2-benzoxaborinin-6-yl)amino]-1-[trans-4-cyanotetrahydro-2H-pyran-3-yl]pyrazole-4-carboxamide] |
| < 0.01 | N#CC1CCOCC1n1cc(C(N)=O)c(Nc2ccc3c(c2)COB3O)n1 (stereo not drawn) [Example 41, 1-(trans-4-cyanotetrahydro-2H-pyran-3-yl)-3-((1-hydroxy-1,3-dihydrobenzo[c][1,2]oxaborol-5-yl)amino)-1H-pyrazole-4-carboxamide] |
| < 0.01 | CC1(C)OB(O)c2cc(Nc3nn(C4COCCC4C#N)cc3C(N)=O)ccc21 (stereo not drawn) [Example 36, 1-[trans-4-cyanotetrahydro-2H-pyran-3-yl]-3-[(1-hydroxy-3,3-dimethyl-2,1-benzoxaborol-6-yl)amino]pyrazole-4-carboxamide] |
| < 0.01 | N#C[C@@H]1CCOC[C@H]1n1cc(C(N)=O)c(Nc2ccc3c(c2)B(O)OCC3)n1 (single isomer, unassigned) [Example 42a, 1-[trans-4-cyanotetrahydro-2H-pyran-3-yl]-3-[(1-hydroxy-3,4-dihydro-2,1-benzoxaborinin-7-yl)amino]pyrazole-4-carboxamide] |
| < 0.01 | CC(C)(C)C1=Cc2cc(Nc3nn([C@@H]4CCCC[C@H]4C#N)cc3C(N)=O)ccc2OB1O (relative stereo) [Example 21, 3-[(3-tert-butyl-2-hydroxy-1,2-benzoxaborinin-6-yl)amino]-1-(trans-2-cyanocyclohexyl)pyrazole-4-carboxamide] |
| > 0.05 | Cc1cc2c(cc1Nc1nn([C@@H]3COCC[C@H]3C#N)cc1C(N)=O)C=CB(O)O2 (single isomer, unassigned) [Example 46a, 1-(trans-4-cyanotetrahydro-2H-pyran-3-yl)-3-((2-hydroxy-7-methyl-2H-benzo[e][1,2]oxaborinin-6-yl)amino)-1H-pyrazole-4-carboxamide] |
| < 0.01 | CC1=Cc2cc(Nc3nn([C@@H]4COCC[C@H]4C#N)cc3C(N)=O)cc(F)c2OB1O (single isomer, unassigned) [Example 14a, 1-[trans-4-cyanotetrahydro-2H-pyran-3-yl]-3-[(8-fluoro-2-hydroxy-3-methyl-1,2-benzoxaborinin-6-yl)amino]pyrazole-4-carboxamide] |
| < 0.01 | Cc1cc(Nc2nn(C3COCCC3C#N)cc2C(N)=O)cc2c1B(O)OC2 (stereo not drawn) [Example 6, 1-(trans-4-cyanotetrahydro-2H-pyran-3-yl)-3-[(1-hydroxy-7-methyl-3H-2,1-benzoxaborol-5-yl)amino]pyrazole-4-carboxamide] |
| < 0.01 | N#C[C@@H]1CCOC[C@H]1n1cc(C(N)=O)c(Nc2cc(Cl)c3c(c2)COB3O)n1 (single isomer, unassigned) [Example 52b, 3-((7-chloro-1-hydroxy-1,3-dihydrobenzo[c][1,2]oxaborol-5-yl)amino)-1-(trans-4-cyanotetrahydro-2H-pyran-3-yl)-1H-pyrazole-4-carboxamide] |
| < 0.01 | N#C[C@@H]1CCOC[C@H]1n1cc(C(N)=O)c(Nc2ccc3c(c2)C=CB(O)O3)n1 (single isomer, unassigned) [Example 51a, 1-[trans-4-cyanotetrahydro-2H-pyran-3-yl]-3-[(2-hydroxy-1,2-benzoxaborinin-6-yl)amino]pyrazole-4-carboxamide] |
| < 0.01 | CC1=Cc2cc(Nc3nn([C@@H]4COCC[C@H]4C#N)cc3C(N)=O)ccc2OB1O (relative stereo) [Example 5, 1-(trans-4-cyanotetrahydro-2H-pyran-3-yl)-3-((2-hydroxy-3-methyl-2H-benzo[e][1,2]oxaborinin-6-yl)amino)-1H-pyrazole-4-carboxamide] |
| < 0.01 | N#CC1CCOCC1n1cc(C(N)=O)c(Nc2ccc3c(c2)B(O)OCC3)n1 (stereo not drawn) [Example 42, 1-[trans-4-cyanotetrahydro-2H-pyran-3-yl]-3-[(1-hydroxy-3,4-dihydro-2,1-benzoxaborinin-7-yl)amino]pyrazole-4-carboxamide] |
| < 0.01 | CC1(C)OB(O)c2cc(Nc3nn([C@@H]4COCC[C@H]4C#N)cc3C(N)=O)ccc21 (single isomer, unassigned) [Example 36a, 1-[trans-4-cyanotetrahydro-2H-pyran-3-yl]-3-[(1-hydroxy-3,3-dimethyl-2,1-benzoxaborol-6-yl)amino]pyrazole-4-carboxamide] |
| > 0.05 | N#C[C@@H]1CCOC[C@H]1n1cc(C(N)=O)c(Nc2cc3c(c(C(F)(F)F)c2)OB(O)C=C3)n1 (single isomer, unassigned) [Example 28a, 1-[trans-4-cyanotetrahydro-2H-pyran-3-yl]-3-[[2-hydroxy-8-(trifluoromethyl)-1,2-benzoxaborinin-6-yl]amino]pyrazole-4-carboxamide] |
| < 0.01 | Cc1cc(Nc2nn([C@@H]3COCC[C@H]3C#N)cc2C(N)=O)cc2c1OB(O)C=C2 (single isomer, unassigned) [Example 27b, 1-[trans-4-cyanotetrahydropyran-3-yl]-3-[(2-hydroxy-8-methyl-1,2-benzoxaborinin-6-yl)amino]pyrazole-4-carboxamide] |
| < 0.01 | N#C[C@@H]1CCOC[C@H]1n1cc(C(N)=O)c(Nc2ccc3c(c2)COB3O)n1 (single isomer, unassigned) [Example 41a, 1-(trans-4-cyanotetrahydro-2H-pyran-3-yl)-3-((1-hydroxy-1,3-dihydrobenzo[c][1,2]oxaborol-5-yl)amino)-1H-pyrazole-4-carboxamide] |
| < 0.01 | N#CC1CCOCC1n1cc(C(N)=O)c(Nc2cc(Cl)c3c(c2)C=CB(O)O3)n1 (stereo not drawn) [Example 13, 3-((8-chloro-2-hydroxy-2H-benzo[e][1,2]oxaborinin-6-yl)amino)-1-(trans-4-cyanotetrahydro-2H-pyran-3-yl)-1H-pyrazole-4-carboxamide] |
| 0.01 to 0.05 | N#C[C@@H]1CCC[C@H]1n1cc(C(N)=O)c(Nc2ccc3c(c2)B(O)OC3)n1 (relative stereo) [Example 10, 1-(trans-2-cyanocyclopentyl)-3-[(1-hydroxy-3H-2,1-benzoxaborol-6-yl)amino]pyrazole-4-carboxamide] |
| < 0.01 | N#CC1CCOCC1n1cc(C(N)=O)c(Nc2cc(F)c3c(c2)COB3O)n1 (stereo not drawn) [Example 38, 1-[trans-4-cyanotetrahydro-2H-pyran-3-yl]-3-[(7-fluoro-1-hydroxy-3H-2,1-benzoxaborol-5-yl)amino]pyrazole-4-carboxamide] |
| < 0.01 | Cc1cc(Nc2nn(C3COCCC3C#N)cc2C(N)=O)cc2c1B(O)OC2 (single isomer, unassigned) [Example 6a, 1-[trans-4-cyanotetrahydropyran-3-yl]-3-[(1-hydroxy-7-methyl-3H-2,1-benzoxaborol-5-yl)amino] pyrazole-4-carboxamide (stereoisomerone)] |
| 0.01 to 0.05 | CC(C)(C)C1=Cc2cc(Nc3nn([C@@H]4CCC[C@H]4C#N)cc3C(N)=O)ccc2OB1O (relative stereo) [Example 20, 3-[(3-tert-butyl-2-hydroxy-1,2-benzoxaborinin-6-yl)amino]-1-(trans-2-cyanocyclopentyl)pyrazole-4-carboxamide] |
| 0.01 to 0.05 | CC1=Cc2cc(Nc3nn([C@@H]4COCC[C@H]4C#N)cc3C(N)=O)cc(F)c2OB1O (single isomer, unassigned) [Example 14b, 1-[trans-4-cyanotetrahydro-2H-pyran-3-yl]-3-[(8-fluoro-2-hydroxy-3-methyl-1,2-benzoxaborinin-6-yl)amino]pyrazole-4-carboxamide] |
| < 0.01 | CC1=Cc2cc(Nc3nn([C@@H]4CCC[C@H]4C#N)cc3C(N)=O)cc(F)c2OB1O (single isomer, unassigned) [Example 45a, 1-[trans-2-cyanocyclopentyl]-3-[(8-fluoro-2-hydroxy-3-methyl-1,2-benzoxaborinin-6-yl)amino]pyrazole-4-carboxamide] |
| 0.01 to 0.05 | CCC1=C(CC)c2cc(Nc3nn([C@@H]4CCC[C@H]4C#N)cc3C(N)=O)ccc2OB1O (relative stereo) [Example 40, 1-(trans-2-cyanocyclopentyl)-3-[(3,4-diethyl-2-hydroxy-1,2-benzoxaborinin-6-yl)amino]pyrazole-4-carboxamide] |
| < 0.01 | CCC1=Cc2cc(Nc3nn([C@@H]4COCC[C@H]4C#N)cc3C(N)=O)ccc2OB1O (relative stereo) [Example 56, 1-(trans-4-cyanotetrahydro-2H-pyran-3-yl)-3-[(3-ethyl-2-hydroxy-1,2-benzoxaborinin-6-yl)amino]pyrazole-4-carboxamide] |
| < 0.01 | N#C[C@@H]1CCC[C@H]1n1cc(C(N)=O)c(Nc2ccc3c(c2)C=CB(O)O3)n1 (relative stereo) [Example 8, 1-(trans-2-cyanocyclopentyl)-3-[(2-hydroxy-1,2-benzoxaborinin-6-yl)amino]pyrazole-4-carboxamide] |
